The record followed here is patent publication US9409905B2, “Antibacterial compounds and methods for use” (PTC THERAPEUTICS, INC., priority 2011, dated 2016).

Test [1] has as its system E. coli 25922. The test is described as follows: Antibacterial activity, microbroth dilution MIC (Table 1). The class given is cell-based, Escherichia coli. To be noted: Escherichia coli; microbroth dilution; control Gram-negative E. coli 25922 strain; read-out: MIC, 25922. The method, boiled down: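 MIC (μg/mL) read as lowest concentration with no macroscopically visible growth; microbroth dilution format. E. coli 25922 served as control Gram-negative strain.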

The subject of test [2] is E. coli LZ3111. The test is described as follows: Antibacterial activity, MIC, quinolone resistant strain (Table 2). The class given is cell-based. To be noted: Escherichia coli, LZ3111, read-out: MIC LZ3111. In outline: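 Strain carries mutations conferring high-level quinolone resistance; tested by microbroth dilution, MIC recorded in μg/mL as lowest concentration preventing visible growth.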

In test [3] the test system is Escherichia coli (E. coli) BAS849. The test can be described thus: Antibacterial activity, microbroth dilution MIC (Table 1). Format: cell-based. To be noted: microbroth dilution, super sensitive Gram-negative E. coli BAS849, read-out: MIC, BAS849. The method, boiled down: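 In a microbroth dilution test, the minimum inhibitory concentration was defined as the lowest compound level preventing growth seen by eye, and was given in μg/mL.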
A general note: Broth dilution looks for growth in wells or tubes with falling amounts of substance.

Test [4] deals with Staphylococcus aureus (S. aureus) 29213. Described as above. The class given is cell-based. To be noted: microbroth dilution, Gram-positive S. aureus 29213, read-out: MIC, 29213. In outline:
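Broth microdilution against S. aureus 29213, E. coli 25922 and hypersensitive E. coli BAS849. MIC in μg/mL is the lowest drug concentration preventing macroscopically visible growth under test conditions.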

Test [5] has as its system A. baumannii MXX2240. The test is described as follows: Antibacterial activity, MIC, resistant strain (Table 4). The class given is cell-based. To be noted: Acinetobacter baumannii, MXX2240; resistant A. baumannii MMX2240, multi-drug resistant clinical isolate; read-out: MIC, MMX2240. The method, boiled down:
(§1)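 Values are minimum inhibitory concentrations in μg/mL from broth microdilution, meaning no macroscopically visible growth at that concentration. Resistant MXX isolates are multi-drug resistant clinical strains.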

Test [6] relates to K. pneumoniae MXX1232. The test is described as above. Format: cell-based. To be noted: Klebsiella pneumoniae, MXX1232; resistant K. pneumoniae MMX1232, multi-drug resistant clinical isolate; read-out: MIC, MMX1232. The method, boiled down: as §1
The subject of test [7] is Pseudomonas aeruginosa (P. aeruginosa) 27853. The test can be described thus: Antibacterial activity, MIC (Table 5). The class given is cell-based. To be noted: P. aeruginosa 27853, read-out: MIC, 27853. In outline:
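Compounds are serially diluted in broth and inoculated with the organism. Growth is then inspected macroscopically, and the lowest concentration showing none is taken as the MIC (μg/mL).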

In test [8] the test system is Klebsiella pneumoniae (K. pneumoniae) 35657. The test is described as follows: Antibacterial activity, MIC (Table 4). Format: cell-based. To be noted: K. pneumoniae 35657, read-out: MIC, 35657. In outline:
as §1

The subject of test [9] is Acinetobacter baumannii (A. baumannii) BAA747. The test can be described thus: Antibacterial activity, MIC (Table 4). The class given is cell-based. To be noted: A. baumannii BAA747, read-out: MIC, BAA747. In outline: as §1

Each structure is given as a SMILES string. Values after ≈ are worked out from the molar mass of the structure shown. Some results are limits rather than exact numbers.

As usually defined, the MIC is the lowest concentration found to suppress growth. On to `Cc1c(-c2ccc3c(cnn3C)c2)[nH]c(=O)c(C(=O)O)c1O` [Cpd 394, 4-hydroxy-5-methyl-6-(1-methyl-1H-indazol-5-yl)-2-oxo-1,2-dihydropyridine-3-carboxylic acid], for which the MIC in [1] is 12.5 to 150 µg/mL (≈ 41.8 to 501 µM); in [2], < 1 µg/mL; in [3], 3.5 to 12.5 µg/mL (≈ 11.7 to 41.8 µM); in [4] it was 12.5 to 150 µg/mL (≈ 41.8 to 501 µM); in [5] it was < 1 µg/mL; in test [6], 12.5 to 150 µg/mL (≈ 41.8 to 501 µM). Further, the MIC in test [7], in test [8] and in [9] was 12.5 to 150 µg/mL (≈ 41.8 to 501 µM) in each case.

For the compound `Cc1c(-c2ccc3nn(C)cc3c2)[nH]c(=O)c(C(=O)O)c1O` [Cpd 395, 4-hydroxy-5-methyl-6-(2-methyl-2H-indazol-5-yl)-2-oxo-1,2-dihydropyridine-3-carboxylic acid], the MIC was in the range of 12.5 to 150 µg/mL (≈ 41.8 to 501 µM) in test [1]; 1 to 3.5 µg/mL (≈ 3.34 to 11.7 µM) in test [2]; 12.5 to 150 µg/mL (≈ 41.8 to 501 µM) in test [3]; 3.5 to 12.5 µg/mL (≈ 11.7 to 41.8 µM) in test [4]; 3.5 to 12.5 µg/mL (≈ 11.7 to 41.8 µM) in [5]; 12.5 to 150 µg/mL (≈ 41.8 to 501 µM) in [6]. In addition, the MIC in [7], in [8] and in test [9] was 12.5 to 150 µg/mL (≈ 41.8 to 501 µM) in each case.

`Cc1c(-c2ccc3cnn(C)c3c2)[nH]c(=O)c(C(=O)O)c1O` [Cpd 396, 4-hydroxy-5-methyl-6-(1-methyl-1H-indazol-6-yl)-2-oxo-1,2-dihydropyridine-3-carboxylic acid]: the MIC in [1] lay within 12.5 to 150 µg/mL (≈ 41.8 to 501 µM); in [2], 1 to 3.5 µg/mL (≈ 3.34 to 11.7 µM); in test [3] it was 12.5 to 150 µg/mL (≈ 41.8 to 501 µM); in [4] it was 12.5 to 150 µg/mL (≈ 41.8 to 501 µM); in test [5] it was 3.5 to 12.5 µg/mL (≈ 11.7 to 41.8 µM); in test [6], 12.5 to 150 µg/mL (≈ 41.8 to 501 µM). In addition, the MIC in test [7], in [8] and in [9] was 12.5 to 150 µg/mL (≈ 41.8 to 501 µM) each time.

For the compound `Cc1c(-c2ccc3cn(C)nc3c2)[nH]c(=O)c(C(=O)O)c1O` [Cpd 397, 4-hydroxy-5-methyl-6-(2-methyl-2H-indazol-6-yl)-2-oxo-1,2-dihydropyridine-3-carboxylic acid], the MIC in test [1] was in the range of 12.5 to 150 µg/mL (≈ 41.8 to 501 µM); in [2] it was 1 to 3.5 µg/mL (≈ 3.34 to 11.7 µM); in test [3], 12.5 to 150 µg/mL (≈ 41.8 to 501 µM); in test [4] it was 12.5 to 150 µg/mL (≈ 41.8 to 501 µM); in [5] it was 3.5 to 12.5 µg/mL (≈ 11.7 to 41.8 µM); in test [6], 12.5 to 150 µg/mL (≈ 41.8 to 501 µM). Further, the MIC in [7], in test [8] and in test [9] was 12.5 to 150 µg/mL (≈ 41.8 to 501 µM) in each case.

Regarding `Cc1c(-c2ccc3[nH]ncc3c2)[nH]c(=O)c(C(=O)O)c1O` [Cpd 398, 4-hydroxy-6-(1H-indazol-5-yl)-5-methyl-2-oxo-1,2-dihydropyridine-3-carboxylic acid], the MIC in test [1] lay in the range of 12.5 to 150 µg/mL (≈ 43.8 to 526 µM); in [2] it was 3.5 to 12.5 µg/mL (≈ 12.3 to 43.8 µM); in test [3], 12.5 to 150 µg/mL (≈ 43.8 to 526 µM); in test [4], 12.5 to 150 µg/mL (≈ 43.8 to 526 µM); in test [5], 12.5 to 150 µg/mL (≈ 43.8 to 526 µM); in test [6], 12.5 to 150 µg/mL (≈ 43.8 to 526 µM). Also, the MIC in test [7], in test [8] and in [9] was 12.5 to 150 µg/mL (≈ 43.8 to 526 µM) each time.

Take `Cc1c(-c2ccc3cn[nH]c3c2)[nH]c(=O)c(C(=O)O)c1O` [Cpd 399, 4-hydroxy-6-(1H-indazol-6-yl)-5-methyl-2-oxo-1,2-dihydropyridine-3-carboxylic acid]: the MIC in [1], in test [2], in [3], in test [4], in test [5] and in test [6] was 12.5 to 150 µg/mL (≈ 43.8 to 526 µM) throughout. Further, the MIC in test [7], in [8] and in test [9] was 12.5 to 150 µg/mL (≈ 43.8 to 526 µM) each time.

`CCc1c(-c2cn3ccccc3n2)[nH]c(=O)c(C(=O)O)c1O` [Cpd 400, 5-ethyl-4-hydroxy-6-(imidazo[1,2-a]pyridin-2-yl)-2-oxo-1,2-dihydropyridine-3-carboxylic acid]: the MIC was 12.5 to 150 µg/mL (≈ 41.8 to 501 µM) in test [1]; 12.5 to 150 µg/mL (≈ 41.8 to 501 µM) in test [2]; 1 to 3.5 µg/mL (≈ 3.34 to 11.7 µM) in [3]; 12.5 to 150 µg/mL (≈ 41.8 to 501 µM) in test [4]; 12.5 to 150 µg/mL (≈ 41.8 to 501 µM) in test [5]; 12.5 to 150 µg/mL (≈ 41.8 to 501 µM) in test [6]. Besides, the MIC in test [7], in test [8] and in [9] was 12.5 to 150 µg/mL (≈ 41.8 to 501 µM) throughout.

For `CCc1c(-c2cc3c(N(C)C)nc(C)cn3n2)[nH]c(=O)c(C(=O)O)c1O` [Cpd 401, 6-(4-(dimethylamino)-6-methylpyrazolo[1,5-a]pyrazin-2-yl)-5-ethyl-4-hydroxy-2-oxo-1,2-dihydropyridine-3-carboxylic acid], the MIC in [1] is 12.5 to 150 µg/mL (≈ 35 to 420 µM); in test [2] it was 12.5 to 150 µg/mL (≈ 35 to 420 µM); in [3], 3.5 to 12.5 µg/mL (≈ 9.79 to 35 µM); in [4], 3.5 to 12.5 µg/mL (≈ 9.79 to 35 µM); in test [5], 12.5 to 150 µg/mL (≈ 35 to 420 µM); in test [6], 12.5 to 150 µg/mL (≈ 35 to 420 µM). Besides, the MIC in [7], in test [8] and in [9] was 12.5 to 150 µg/mL (≈ 35 to 420 µM) throughout.
